Data on seven compounds can be found in patent US6455761B1, “Agrobacterium-mediated transformation of turnip rape” (Helsinki University Licensing Ltd. Oy, priority 1997, dated 2002).

Data set [1] concerns inflorescence stem segments of turnip rape plants. Briefly: Effect of cultivation factors on transformation of inflorescence stem segments by Agrobacterium LBA4404pGPTV-KAN-GUSint (histological GUS assay). The class given is cell-based, Brassica rapa ssp. oleifera. Conditions: for Average %: average of cultivars.
In another data set the test system is Agrobacterium. Conditions: 5 mg/l (30 μM); MS medium during co-cultivation with plant explants. The text has this:
We have transformed inflorescence stem segments of turnip rape using different concentrations of silver nitrate and sealed plates with plant explants by parafilm or porous paper tape. Transformation efficiency was examined in histological GUS assay 4 days after co-cultivation. Transformation efficiency is shown in Table 4 as proportion of explants with blue inclusions in the calli per all explants (also in %).

The test system of the next data set is explants of turnip rape. The protocol: (§1) Selection and regeneration. […] Thereafter the whole explants or cut callus pieces with the green nodules and primordia were transferred on hormone free MS medium, where nodules developed primordia and shoots. Silver nitrate in concentration 0-90 μM (0-15 mg/l) and porous paper tape for sealing of Petri dishes were used in transformation and regeneration of transgenic plants.
Shoot regeneration. Effects of different hormones on various explants of mature plants of turnip rape were tested in preliminary experiments to achieve sufficient shoot regeneration.
Silver nitrate application and aeration. The use of silver nitrate in in vitro cultivation of turnip rape has often been reported as an essential factor for shoot regeneration (Chi et al. 1990; Hachey et al. 1991; Mukhopadhuay et al. 1992; Radke et al. 1992). […] We have examined the effect of silver nitrate on regeneration capacity of explants of turnip rape.
Selection. To prevent Agrobacterium growth on the medium we used claforan (cefotaxim) 500 mg/l or carbenicillin 200 mg/l.

Data set [2] deals with turnip rape plants cv. Valtti and Sisu. Briefly: Transgenic shoot regeneration under antibiotic selection. As for the experimental part:
as §1
Selection on kanamycin or hygromycin was applied immediately after co-cultivation of the explants with Agrobacteria, three days after beginning of the whole procedure. Antibiotics were used in concentrations 20-25 mg/l during all steps of regeneration and cultivation of transgenic plants.
Using nptII and hpt genes in transformation constructions provides the plants resistance to kanamycin and hygromycin, respectively. […] Because morfogenesis occurs mainly on the basal side of the stem segmets, explants are placed basal side down on the selection medium.
Turnip rape plants cv. Valtti and Sisu were transformed with LBA4404 pGPTV-KAN-GUSint and LBA4404 pGPTV-HPT-GUSint.
Analysis of transformation. Green regenerated shoots were checked for GUS activity. Leaves or leaf pieces were prepared for histological GUS assay as described above.

The mark [3] stands for this setting: 100 μM AS added in MS medium during inoculation and cocultivation, cv. Sisu.
Where [4] appears, read: 100 μM AS added in MS medium during inoculation and cocultivation, cv. Valtti.
[5] abbreviates: 100 μM AS in MS medium and Agrobacterium grown one night with 100 μM acetosyringone, cv. Sisu.
Where [6] appears, read: 100 μM AS in MS medium and Agrobacterium grown one night with 100 μM acetosyringone, cv. Valtti.
Where [7] appears, read: selection on 20 mg/l, cultivars Sisu and Valtti.

Take `COc1cc(C(C)=O)cc(OC)c1O` [AS, 3,5-dimethoxy-4-hydroxyacetophenon]: the Average % came to 41.6% in data set [1] (100 μM AS added in MS medium during inoculation and cocultivation); 46.6% in data set [1] (100 μM AS in MS medium and Agrobacterium grown one night with 100 μM acetosyringone). Further, the “GUS +/all” value in data set [1] (setting [3]) is reported as 24/65; in data set [1] (setting [4]), 36/78; in data set [1] (setting [5]), 29/65; in data set [1] (setting [6]), 35/72. The “GUS +/all %” value stood at 36.9% in data set [1] (setting [3]), 46.2% in data set [1] (setting [4]), 44.6% in data set [1] (setting [5]) and 48.6% in data set [1] (setting [6]).

On to `O=[N+]([O-])[O-].[Ag+]` [AgNO3, silver nitrate], for which the Average % in data set [1] (5 mg/l AgNO3) is recorded as 29.5%; in data set [1] (10 mg/l AgNO3), 37.6%; in data set [1] (15 mg/l AgNO3), 37.6%. Further, the “GUS +/all %” value is 27.1% in data set [1] (5 mg/l AgNO3, cv. Sisu); 37.8% in data set [1] (5 mg/l AgNO3, cv. Valtti); 28.3% in data set [1] (10 mg/l AgNO3, cv. Sisu); 46.9% in data set [1] (10 mg/l AgNO3, cv. Valtti); 42.5% in data set [1] (15 mg/l AgNO3, cv. Sisu); 32.6% in data set [1] (15 mg/l AgNO3, cv. Valtti). Also, the “GUS +/all” value in data set [1] (5 mg/l AgNO3, cv. Sisu, 4 days after co-cultivation) was 19/70; in data set [1] (5 mg/l AgNO3, cv. Valtti), 14/37; in data set [1] (10 mg/l AgNO3, cv. Sisu), 15/53; in data set [1] (10 mg/l AgNO3, cv. Valtti) it was 15/32; in data set [1] (15 mg/l AgNO3, cv. Sisu), 17/40; in data set [1] (15 mg/l AgNO3, cv. Valtti), 14/43. Moreover, the effect on transformation result in data set [1] (silver nitrate in the cultivation medium) was “does not have a negative effect on transformation”. For the same compound, the “effect on Agrobacterium growth” value in the data set with Agrobacterium is “suppresses Agrobacterium growth”. In addition, in the data set with explants of turnip rape, the “Shoot regeneration optimum concentration” value was 5 to 10 mg/L. Besides, in the data set with explants of turnip rape, the “effect of high concentrations on cultivated calli” value was “browning and partial necrosis of cultivated calli”.

On to `CO/N=C(\C(=O)N[C@@H]1C(=O)N2C(C(=O)O)=C(COC(C)=O)CS[C@H]12)c1csc(N)n1` [Claforan, cefotaxim], for which the “recovering of transgenic shoots after inoculation with Agrobacteria” value in data set [2] (claforan used to prevent Agrobacterium growth) is “full block of recovering of transgenic shoots”. In the data set on explants of turnip rape (claforan 500 mg/l vs carbenicillin 200 mg/l, data not shown), the “decrease of shoot regeneration frequency compared to carbenicillin” value is given as 2-5 times.

For `O=C(O)Cc1c[nH]c2ccccc12` [IAA, indole-3-acetic acid], the “effect on shoot regeneration relative to BAP and NAA” value in the data set with explants of turnip rape (data not shown) was “less effective than BAP and NAA”.

In the case of `NC[C@H]1O[C@H](O[C@H]2[C@H](O)[C@@H](O[C@H]3O[C@H](CO)[C@@H](O)[C@H](N)[C@H]3O)[C@H](N)C[C@@H]2N)[C@H](O)[C@@H](O)[C@@H]1O` [Kanamycin], in data set [2] (selection of transgenic shoots), the escape proportion is reported as 80-90%. Further, in data set [2] (setting [7]), the “Escapes per green shoots” value is 52/59, the “Escapes per green shoots %” value is recorded as 88%, the “GUS positive per all explants” value is 7/182 and the “GUS positive per all explants %” value is on record as 4%. Also, in data set [2] (setting [7]), the “Green shoots per all explants” value was 59/182 and the “Green shoots per all explants %” value worked out at 32%.

In the case of `CC1(C)S[C@@H]2[C@H](NC(=O)C(C(=O)O)c3ccccc3)C(=O)N2[C@H]1C(=O)O` (some centres unmarked) [carbenicillin], the effect on regeneration entry with explants of turnip rape (200 mg/l, data not shown) is “does not have an apparent negative effect on regeneration”.

As to `c1coc(CNc2ncnc3[nH]cnc23)c1` [kinetin], the “effect on shoot regeneration relative to BAP and NAA” value with explants of turnip rape (data not shown) was “less effective than BAP and NAA”.
